“Also recorded” adds a separate entry of the source.
Assays:
RBP = RBP (Homo sapiens, UniProt P02753); assay: Competition binding assay, RBP-retinol/HPR, fluorescence; conditions: physiological temperature (37 C)
Text: Based upon these findings, we sought to further explore the mechanism(s) of retinol reduction during HPR treatment. A tenable hypothesis is that HPR may displace retinol by competing at the retinol binding site on RBP. […] Therefore, one can measure displacement of retinol from the RBP holoprotein by observing decreases in both protein (340 nm) and retinol (470 nm) fluorescence. We performed a competition binding assay using RBP-retinol/HPR concentrations which were similar to those determined from the 14 day trial at 20 mg/kg HPR described above. […] In the control assays, decreases in retinol fluorescence were associated with concomitant increases in protein fluorescence, see FIG. 3a. This effect was determined to be due to temperature effects as the dissociation constant of RBP-retinol increases (decreased affinity) with increased time at 37 C.

LRAT = biological target: T1, LRAT (Bos taurus, UniProt Q9BGL2); assay: In vitro LRAT assay, retinyl ester synthesis by bovine RPE membranes/microsomes; type: biochemical
T1 construct: bovine RPE microsomes are used as an enzyme source; from tissue; host or cells: bovine retinal pigment epithelium (membranes / microsomes)
T1 sequence (Q9BGL2 1-230): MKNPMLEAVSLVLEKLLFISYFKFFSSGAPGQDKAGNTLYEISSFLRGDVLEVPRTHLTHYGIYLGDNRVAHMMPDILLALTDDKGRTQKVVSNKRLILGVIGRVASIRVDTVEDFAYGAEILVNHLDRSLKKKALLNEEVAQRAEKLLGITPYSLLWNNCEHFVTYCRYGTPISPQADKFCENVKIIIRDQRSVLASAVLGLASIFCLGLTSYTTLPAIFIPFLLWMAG
Protocol: (§1) We examined the effects on HPR on enzymes or proteins of the visual cycle using in vitro biochemical assays. Specifically, the utilization of exogenous all-trans retinol by membranes prepared from bovine RPE was studied. […] Steady-state levels of HPR in the RPE (determined from mice which have been given 20 mg/kg HPR, i.p., daily for 28 days) range from 5-10 μM. With this in mind, we examined the effects of 10 μM HPR on production of all-trans retinyl esters and 11-cis retinol in assays similar to those described above. […] In the presence of endogenous retinoids, utilization of exogenous all-trans retinol is extremely low and 11-cis retinol is produced solely from the endogenous all-trans retinyl esters. […] Thus, the retinoic acids appear to affect at least two targets in the visual cycle. We have determined that HPR-induced reduction of 11-cis retinol biosynthesis occurs via LRAT inhibition and reduction in all-trans retinyl ester levels. In this situation, the isomerase enzyme is starved for substrate and 11-cis retinol production declines.
A second target for HPR in the visual cycle was identified using in vitro biochemical assays. Lecithin retinol acyl transferase (LRAT) catalyzes the conversion of retinol into retinyl esters. LRAT is critical not only for retinol-retinyl ester homeostasis but also for generation of substrate for visual chromophore biosynthesis. The data shown in panel A of FIG. 16 illustrate the inhibitory effect of HPR on the rate of retinyl ester synthesis. In this assay, bovine RPE microsomes are used as an enzyme source and all-trans retinol (atROL) is the substrate. […] A secondary transformation (Eadie-Hofstee) of the kinetic data in panel A reveal that the mode of inhibition is competitive (see FIG. 16, panel B). Therefore, HPR competes with atROL for binding sites on LRAT. The apparent inhibition constant (Ki) was determined to be ˜6 μM. This means that at 6 μM HPR, the rate of retinyl ester synthesis would be decreased by 50%. In a separate study, we have determined that HPR concentrations in the RPE approach 10 μM with a 10 mg/kg dose of HPR.

[1] = system: 11-cis retinol biosynthesis; assay: In vitro 11-cis retinol production by bovine RPE membranes; type: biochemical; conditions: 10 μM HPR, p<0.05
Protocol: as §1

abca4 null mutant mice = assay: A2PE-H2 and A2E as a function of HPR dose, 28 days; type: in vivo, mouse; conditions: HPR daily for 28 days, several doses
Protocol: Group averages from the data shown in panels A-G of FIG. 18 in Example 25 (28 day time points) are plotted to illustrate the strong correlation between increases in serum HPR and decreases in serum retinol (see FIG. 12). Reductions in serum retinol are highly correlated with reductions in A2E and precursor compounds (A2PE-H2). A pronounced reduction in A2PE-H2 in the 2.5 mg/kg dosage group (˜47%) is observed when the serum retinol reduction is only 20%. The reason for this disproportionate reduction is related to the inherently lower ocular retinoid content in this group of 2-month old animals compared to the other groups. It is likely that if these animals had been maintained on the 2.5 mg/kg dose for a more prolonged period, a greater reduction in A2E would also be realized.
ABCA4 null mutant mice were given the indicated dose of HPR in DMSO or DMSO alone daily for 28 days (n=16 mice per treatment group). At study onset, mice in the 2.5 mg/kg group were 2 months of age, mice in the other treatment groups were 3 months of age. At the indicated times, representative mice were taken from each group (n=4) for analysis of A2E precursor compounds (see FIG. 18, A2PE-H2, panels A, C and E) and A2E (see FIG. 18, panels B, D and F). […] Sample extracts were analyzed by LC. […]

abcr null mutant mice = assay: Lipofuscin autofluorescence in RPE and light microscopy of retina; type: in vivo, mouse; conditions: 28 days of HPR
Protocol: Treatment conditions are as described above.
HPR (10 mg/kg in DMSO) was administered to ABCA4−/− mice daily for a period of 28 days. Control ABCA4−/− mice received only DMSO for the same period. […] Importantly, the observed reductions in lipofuscin autofluorescence persist long after cessation of HPR therapy. HPR (10 mg/kg), or DMSO, administration was discontinued following 28 days of treatment and re-evaluated A2E and precursor levels after 2 weeks and after 4 weeks.

## CC1=C(/C=C/C(C)=C/C=C/C(C)=C/C(=O)Nc2ccc(O)cc2)C(C)(C)CCC1 [HPR, N-(4-hydroxyphenyl)retinamide]
RBP
  displacement of retinol from RBP-retinol holoprotein: efficiently displaces retinol
LRAT; Eadie-Hofstee transformation
  mode of inhibition of LRAT: competitive
LRAT; bovine RPE microsomes, atROL substrate
  net retinyl ester synthesis: decreases net retinyl ester synthesis in a concentration-dependent manner
LRAT; bovine RPE microsomes, atROL substrate, read-out: apparent inhibition constant (Ki), LRAT
  Ki: ~6 µM
LRAT; membranes from bovine RPE, exogenous all-trans retinol, read-out: half-maximal inhibition of LRAT
  IC50: ~20 µM
[1]
  effect on 11-cis retinol biosynthesis: statistically significant inhibition
abca4 null mutant mice
  A2PE-H2 and A2E during the study period: dose-dependent reductions
Abcr null mutant mice
  lipofuscin autofluorescence in the RPE: significantly reduces; also recorded: comparable to levels observed in untreated wild type mice
  retinal morphology by light microscopy: No aberrant morphology or compromise of the integrity in retinal cytostructure was observed; also recorded: no alteration of retina cytostructure or morphology
